From patent publication US7589168B2 (Roskamp Research LLC, priority 2001, dated 2009)
Entries after “also recorded” stand apart in the source; their conditions may differ. Ends that are not written are not given here.

Legend:
[1] = tested on: human brain endothelial cells; assay: Endothelial cell migration assay (modified Boyden chamber, […] invasion chamber); type: cell-based; settings: 20 hours, vs untreated cells
Procedure: Endothelial Cell Migration Assay. Migration of human brain adult endothelial cells was evaluated using a modified Boyden chamber assay (BD BioCoat [sequence] Invasion Chamber), as described (Soker et al. 1998; Nakamura et al. 1997). The cells were plated at 4.10^4/ml onto an 8 μm pore size membrane coated with a thin layer of [sequence] basement membrane matrix. Freshly solubilized Aβ (1 μM and 5 μM) was added to the medium in the outer cup and the cells were cultured for 20 hours. Non-invading cells were removed from the upper surface by using a cotton swab. Membrane inserts were then fixed with 4% paraformaldehyde and stained with the DEAD-RED dye (MOLECULAR PROBE). Cells were observed using a fluorescent microscope. The number of cells, which migrated to the undersurface of the filter, was quantified by counting the cells in randomly selected 3 microscopic fields (10×). Experiments were done in triplicate.

endothelial cells = assay: Toxicity (apoptosis, necrosis) of Aβ in the capillary network assay; type: cell-based, human; settings: soluble or aggregated Aβ; data not shown
Procedure: Although endothelial cells continue to proliferate and form a cobblestone monolayer when plated on untreated tissue culture dishes, culturing on dishes coated with reconstituted basement membrane induces endothelial cells to become quiescent and adopt a three-dimensional capillary-like morphology. Therefore, the effect of Aβ on the capillary-like network formation on […] by endothelial cells isolated from human middle cerebral artery was assessed. […] The potential toxicity of Aβ was investigated in this assay and it was observed that under these culture conditions no apoptosis (as measured by ELISA determining the quantity of cytoplasmic oligonucleosomes) or necrosis (estimated by the release of LDH in the culture medium) of endothelial cells was induced by either soluble or aggregated Aβ (data not shown).

B16F1 melanoma cells = assay: Growth of subcutaneous B16F1 melanoma tumors; type: in vivo, C57B16/J mice; settings: cells injected s.c. in medium containing 10 μM freshly dissolved Aβ1-40; 14 days after implantation
Procedure: Subcutaneous Implantation of B16 Melanoma Cells. C57B16/J mice were purchased from Jackson laboratories at 8 weeks of age. The B16 F1 murine melanoma cell line was purchased from ATCC. Cells were grown in DMEM medium supplemented with 10% fetal calf serum and 1× mixture of antibiotics-fungicide (BIOWHITEKER). […] 100 μl of cell suspension were injected subcutaneously in mice. Fourteen days after the implantation of the cells, mice were euthanized and the tumors dissected and weighted.

[2] = tested on: A-549 (human lung adenocarcinoma); assay: Nude mouse tumor xenograft model, A-549; type: in vivo, nude mice; settings: for tumor growth (tumor volume): vs vehicle control; for tumor vascularization (mean microvessel count per tumor): vs control tumors, 50 mg/kg/day
Procedure: (§1) Nude mouse tumor xenograft model. […] The tumor volumes were determined by measuring length (l) and width (w) and calculating volume (V=lw^2/2). On the termination day of each in vivo antitumor study, tumors were extracted and fixed in 10% neutral buffered formalin for 6 h. Formalin-fixed paraffin sections were cut at 3 microns and dried overnight at room temperature. Sections were immunostained with rat anti-mouse CD31 ([sequence], San Diego, Calif.) using the avidin peroxidase complex technique as previously described (Blaskovich M. A., et al. Nat. Biotechnol. 18, 1065-1070 (2000)). Briefly, sections were digested with protease XXIV (1 mg/ml in PBS, pH 7.6) for 7 minutes. Endogenous peroxidase was blocked with 3% hydrogen peroxide and non-specific background staining reduced by a 10 min incubation with normal rabbit serum. Sections were incubated for 30 min with rat anti-mouse CD31 at 1:50, for 15 min with biotinylated anti-rat IgG and for 15 min with ABC complex (VECTOR KIT, Burlingame, Calif). NOVARED was used as the chromogen. Slides were counterstained with modified Mayer's hematoxylin using standard histological techniques. For microvessel counting, the five areas of highest tumor neovascularization were microscopically selected using a low-power view. After the areas of highest neovascularization had been identified, individual microvessels were counted on a 400×(40× objective lens and 10× ocular lens) field. Brown-staining endothelial cells or endothelial cell clusters were considered as a single, countable microvessel as previously described (Weidner N. et al. N. Engl. J. Med. 324, 1-8 (1991)). Data from at least forty 400× fields of each tumor type are reported by mean values±SE. Results are expressed as the % of microvessel count standardized against the microvessel count in the control tumors (vehicle only).

[3] = tested on: U87-MG (human glioblastoma); assay: Nude mouse tumor xenograft model, U87-MG; type: in vivo, nude mice
Procedure: as §1

[4] = tested on: bFGF-induced angiogenesis in MATRIGEL plugs; assay: In vivo […] plug assay (bFGF-induced angiogenesis); design: species or system mice
[5] = tested on: human middle cerebral artery rings; assay: Human middle cerebral artery ring angiogenesis assay; type: cell-based; settings: for microvessel outgrowths: day 9, vs control
[6] = tested on: chick chorionic allantoid membrane (CAM); assay: Chick chorionic allantoid membrane (CAM) model of angiogenesis; type: in vivo; settings: dose range 1 microgram to 250 micrograms, 48 hours
Procedure: After 48 hours of incubation, CAMs were perfused with colloidal carbon, fixed and photographed.

[7] = tested on: neovascularization stimulated by bFGF in the rat cornea; assay: Rat corneal model of angiogenesis (bFGF hydron pellets); type: in vivo
Excerpt: Representative flat-mount photomicrographs of rat corneas (original magnification ×100) 7 days after implantation of hydron pellets. […] Angiogenesis indexes are expressed as mean±SE.

rat aortic rings = assay: Ex vivo rat aortic ring angiogenesis assay; type: cell-based, Sprague Dawley rats
[8] = tested on: cow middle cerebral artery rings; assay: Cow middle cerebral artery ring angiogenesis assay; type: cell-based; settings: COX-2 inhibition by NS-398; data not shown
[9] = 50 mg/kg/day/tumor intratumorally

## Aβ: Aβ peptide as worded in the examples; methods and legends indicate Aβ1-40 (toxicity test: soluble or aggregated Aβ1-40 and Aβ1-42)
[1]; 1 μM freshly solubilized
  endothelial cell migration: stimulated endothelial cell migration
[1]; 5 μM freshly solubilized
  endothelial cell migration: significantly suppressed endothelial cells migration
Endothelial cells
  apoptosis of endothelial cells (ELISA, cytoplasmic oligonucleosomes): no apoptosis
  necrosis of endothelial cells (release of LDH in the culture medium): no
B16F1 melanoma cells
  development of tumors (tumor weight): significantly reduce the development of tumors
[2]; [9]
  tumor growth (tumor volume): suppression of tumor growth
[2]; CD31 and factor VIII immunostaining, 50 mg/kg/day/tumor intratumorally
  reduction of tumor microvessel densities: approximately 60%
[2]; with 10 μM of Aβ peptide
  tumor growth: complete inhibition of tumor growth
[3]; 50 mg/kg/day/tumor intratumorally, vs vehicle control
  tumor growth (tumor volume): suppression of tumor growth
[3]; CD31 immunostaining, 50 mg/kg/day/tumor intratumorally
  reduction of microvessel densities: approximately 50%
[3]; with 10 μM of Aβ peptide
  tumor growth: complete inhibition of tumor growth
[4]; 50 mg/kg/day, Aβ vs scrambled Aβ group, t-test
  total cellular invasion in MATRIGEL plugs: significant difference
[4]; with 2 μM of Aβ peptide
  angiogenesis in the MATRIGEL plug model: inhibition of angiogenesis

## VIGKYHGMSNLVGRSFEVHQGKGAEVDAHGLFDIEAFVDV [scrambled Aβ, having the same amino acids as Aβ1-40 peptide, but in random order]
[5]; 1 μM, listed as scramble Aβ1-40
  microvessel outgrowths: absence of pro-angiogenic activity; also recorded: not altered
[5]; 5 μM
  microvessel outgrowths: not altered
[5]; scramble peptide, dose not given, 9 days
  formation of outgrowths: unable to affect the formation of outgrowths
[2]; [9]
  tumor growth (tumor volume): did not affect the growth of human lung tumors; also recorded: no difference
  tumor vascularization (mean microvessel count per tumor): no significant difference
[2]; 50 mg/kg/day/tumor intratumorally, listed as Aβ scrambled
  tumor vascularization (mean microvessel count per tumor): did not impede tumor vascularization
[6]
  vascular response vs control conditions: no difference in vascular response
[7]; after 7 days, hydron pellets
  neovascularization stimulated by bFGF: displayed no effect
[7]; dose not stated, 7 days
  angiogenesis index vs control (bFGF alone): no significant difference
[4]; 50 mg/kg/day intraperitoneal, 6 days
  endothelial cell invasion and vessel formation (PECAM-1 immunostaining): presence of endothelial cells forming vessels

## CS(=O)(=O)Nc1ccc([N+](=O)[O-])cc1OC1CCCCC1 [NS-398]
Rat aortic rings; 20 μM, day 5, vs control
  microvessel outgrowths: displays anti-angiogenic activity; also recorded: effectively inhibited outgrowths
Rat aortic rings; NS-398 + 1 μM Aβ1-40, day 5
  effect on stimulation of microvessel outgrowths by 1 μM Aβ1-40: able to oppose the pro-angiogenic effect of 1 μM Aβ1-40; also recorded: also inhibited
[8]
  microvessel outgrowths: partial inhibition of microvessel outgrowths
[5]; NS-398 (20 μM)
  microvessel outgrowths: partially inhibited the microvessel outgrowths; also recorded: anti-angiogenic effect
